Source: patent US12310975B2, “Modulators of BCL6 proteolysis and associated methods of use” (Arvinas Operations, Inc., priority 2019, dated 2025)

Biological target: BCL6 (Homo sapiens (Human), UniProt P41182)
Experiment: Immunofluorescence high content imaging of BCL6 degradation in T47D cells
Assay type: cell-based
Details: class symbols A-D, read-out: EC50 (nM)*
Procedure, shortened: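 Read-out is BCL6 immunofluorescence quantified by high-content imaging (10×, 4 fields per well) of T47D breast cancer cells. Cells were exposed for 3 days to degrader in an 11-point, 3-fold serial dilution reaching a final top concentration of 0.1 or 1 μM.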

DC50	Compound
> 100 nM	CNC(=O)COc1cc2cc(Nc3nc(N4CCC(OCCCOc5cc(-c6scnc6C)ccc5CNC(=O)[C@@H]5C[C@@H](O)CN5C(=O)C(c5cc(C)no5)C(C)C)CC4)ncc3Cl)ccc2n(C)c1=O (stereo partly drawn) [compound 141, (2S,4R)-N-(2-(3-((1-(5-chloro-4-((1-methyl-3-(2-(methylamino)-2-oxoethoxy)-2-oxo-1,2-dihydroquinolin-6-yl)amino)pyrimidin-2-yl)piperidin-4-yl)oxy)propoxy)-4-(4-methylthiazol-5-yl)benzyl)-4-hydroxy-1-(3-methyl-2-(3-methylisoxazol-5-yl)butanoyl)pyrrolidine-2-carboxamide]
10 to 50 nM	CNC(=O)COc1cc2cc(Nc3nc(N4CCC(OCCN5CCC(N6CCC(OCC#Cc7ccc8c(c7)CN(C7CCC(=O)NC7=O)C8=O)CC6)CC5)CC4)ncc3Cl)ccc2n(C)c1=O (stereo not shown) [compound 143, 2-((6-((5-chloro-2-(4-(2-(4-((3-(2-(2,6-dioxopiperidin-3-yl)-1-oxoisoindolin-5-yl)prop-2-yn-1-yl)oxy)-[1,4′-bipiperidin]-1′-yl)ethoxy)piperidin-1-yl)pyrimidin-4-yl)amino)-1-methyl-2-oxo-1,2-dihydroquinolin-3-yl)oxy)-N-methylacetamide]
> 100 nM	CNC(=O)COc1cc2cc(Nc3nc(N4CCC(OCCCOCCCOc5cc(-c6scnc6C)ccc5CNC(=O)[C@@H]5C[C@@H](O)CN5C(=O)C(c5cc(C)no5)C(C)C)CC4)ncc3Cl)ccc2n(C)c1=O (stereo partly drawn) [compound 144, (2S,4R)-N-(2-(3-(3-((1-(5-chloro-4-((1-methyl-3-(2-(methylamino)-2-oxoethoxy)-2-oxo-1,2-dihydroquinolin-6-yl)amino)pyrimidin-2-yl)piperidin-4-yl)oxy)propoxy)propoxy)-4-(4-methylthiazol-5-yl)benzyl)-4-hydroxy-1-(3-methyl-2-(3-methylisoxazol-5-yl)butanoyl)pyrrolidine-2-carboxamide]
50 to 100 nM	CNC(=O)COc1cc2cc(Nc3nc(N4CCC(OCCOCCOCCCOCCCOc5ccc6c(c5)CN(C5CCC(=O)NC5=O)C6=O)CC4)ncc3Cl)ccc2n(C)c1=O (stereo not shown) [compound 145, 2-((6-((5-chloro-2-(4-(2-(2-(3-(3-((2-(2,6-dioxopiperidin-3-yl)-1-oxoisoindolin-5-yl)oxy)propoxy)propoxy)ethoxy)ethoxy)piperidin-1-yl)pyrimidin-4-yl)amino)-1-methyl-2-oxo-1,2-dihydroquinolin-3-yl)oxy)-N-methylacetamide]
> 100 nM	CNC(=O)COc1cc2cc(Nc3nc(N4CCC(OCCOCCOCCCOc5ccc6c(c5)CN(C5CCC(=O)NC5=O)C6=O)CC4)ncc3Cl)ccc2n(C)c1=O (stereo not shown) [compound 146, 2-((6-((5-chloro-2-(4-(2-(2-(3-((2-(2,6-dioxopiperidin-3-yl)-1-oxoisoindolin-5-yl)oxy)propoxy)ethoxy)ethoxy)piperidin-1-yl)pyrimidin-4-yl)amino)-1-methyl-2-oxo-1,2-dihydroquinolin-3-yl)oxy)-N-methylacetamide]
> 100 nM	CNC(=O)COc1cc2cc(Nc3nc(N4CCC(OCCOCCCOCCCOc5ccc6c(c5)CN(C5CCC(=O)NC5=O)C6=O)CC4)ncc3Cl)ccc2n(C)c1=O (stereo not shown) [compound 147, 2-((6-((5-chloro-2-(4-(2-(3-(3-((2-(2,6-dioxopiperidin-3-yl)-1-oxoisoindolin-5-yl)oxy)propoxy)propoxy)ethoxy)piperidin-1-yl)pyrimidin-4-yl)amino)-1-methyl-2-oxo-1,2-dihydroquinolin-3-yl)oxy)-N-methylacetamide]

Compound	DC50
CNC(=O)COc1cc2cc(Nc3nc(N4CCC(OCCCCOc5ccc6c(c5)CN(C5CCC(=O)NC5=O)C6=O)CC4)ncc3Cl)ccc2n(C)c1=O (stereo not shown) [compound 142, 2-((6-((5-chloro-2-(4-(4-((2-(2,6-dioxopiperidin-3-yl)-1-oxoisoindolin-5-yl)oxy)butoxy)piperidin-1-yl)pyrimidin-4-yl)amino)-1-methyl-2-oxo-1,2-dihydroquinolin-3-yl)oxy)-N-methylacetamide]	> 100 nM
